In PubChem BioAssay (NCI):
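Cells were grown in 96-well plates and exposed to each compound for 48 hours at five concentrations; endpoints were interpolated linearly between bracketing concentrations, or set to the highest concentration if not reached. The concentration for full growth arrest is given as TGI.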

Experiments:
Experiment in all cases: growth of human tumour cells (NCI), 48 h
MALME-3M melanoma = system: MALME-3M melanoma
SF-268 CNS = system: SF-268 CNS
U251 CNS = system: U251 CNS
SNB-19 CNS = system: SNB-19 CNS
UO-31 renal = system: UO-31 renal
RXF 393 renal = system: RXF 393 renal
DMS 114 small cell lung = system: DMS 114 small cell lung
SK-MEL-5 melanoma = system: SK-MEL-5 melanoma
SF-539 CNS = system: SF-539 CNS
HOP-62 NSCLC = system: HOP-62 NSCLC
HT29 colon = system: HT29 colon
DMS 273 small cell lung = system: DMS 273 small cell lung
OVCAR-8 ovarian = system: OVCAR-8 ovarian
IGROV1 ovarian = system: IGROV1 ovarian
HCC-2998 colon = system: HCC-2998 colon
EKVX NSCLC = system: EKVX NSCLC
ACHN renal = system: ACHN renal
NCI-H460 lung = system: NCI-H460 lung
COLO 205 colon = system: COLO 205 colon
MOLT-4 leukemia = system: MOLT-4 leukemia
SK-MEL-28 melanoma = system: SK-MEL-28 melanoma
UACC-257 melanoma = system: UACC-257 melanoma
SNB-75 CNS = system: SNB-75 CNS
RPMI-8226 leukemia = system: RPMI-8226 leukemia
OVCAR-5 ovarian = system: OVCAR-5 ovarian
OVCAR-3 ovarian = system: OVCAR-3 ovarian
SF-295 CNS = system: SF-295 CNS
OVCAR-4 ovarian = system: OVCAR-4 ovarian
KM20L2 colon = system: KM20L2 colon
HCT-15 colon = system: HCT-15 colon
CCRF-CEM leukemia = system: CCRF-CEM leukemia
KM12 colon = system: KM12 colon
M14 melanoma = system: M14 melanoma
K-562 leukemia = system: K-562 leukemia
HOP-92 NSCLC = system: HOP-92 NSCLC
M19-MEL melanoma = system: M19-MEL melanoma
SW-620 colon = system: SW-620 colon
NCI-H522 lung = system: NCI-H522 lung
UACC-62 melanoma = system: UACC-62 melanoma
A549 NSCLC = system: A549 NSCLC
HCT-116 colon = system: HCT-116 colon
TK-10 renal = system: TK-10 renal
SN12C renal = system: SN12C renal
NCI-H23 lung = system: NCI-H23 lung
786-0 renal = system: 786-0 renal
SNB-78 CNS = system: SNB-78 CNS
XF 498 CNS = system: XF 498 CNS
SK-MEL-2 melanoma = system: SK-MEL-2 melanoma
DLD-1 colon = system: DLD-1 colon
HL-60(TB) leukemia = system: HL-60(TB) leukemia
LXFL 529 NSCLC = system: LXFL 529 NSCLC
SK-OV-3 ovarian = system: SK-OV-3 ovarian
RXF-631 renal = system: RXF-631 renal
LOX IMVI melanoma = system: LOX IMVI melanoma
NCI-H226 lung = system: NCI-H226 lung
A498 renal = system: A498 renal
CAKI-1 renal = system: CAKI-1 renal
HOP-18 NSCLC = system: HOP-18 NSCLC
SR leukemia = system: SR leukemia

Measured: TGI

CC(C)c1cc2c(O)c(c1)Cc1cc(C(C)C)cc(c1O)Cc1cc(C(C)C)cc(c1O)Cc1cc(C(C)C)cc(c1O)Cc1cc(C(C)C)cc(c1O)Cc1cc(C(C)C)cc(c1O)C2
not listed: SK-OV-3 ovarian | RXF-631 renal | LOX IMVI melanoma | NCI-H226 lung | A498 renal | CAKI-1 renal | HOP-18 NSCLC | SR leukemia
> 100 µM: all other assays above

COc1cc(C(N)=O)c(OC)c(OC)c1OC
not listed: MALME-3M melanoma | UACC-257 melanoma | XF 498 CNS | CAKI-1 renal | HOP-18 NSCLC | SR leukemia
> 100 µM: all other assays above

CC1=NN(C(=O)Cc2ccccc2)C(=O)/C1=C\c1cccc(O)c1
not listed: RXF 393 renal | IGROV1 ovarian | KM20L2 colon | HOP-92 NSCLC | UACC-62 melanoma | LXFL 529 NSCLC | SK-OV-3 ovarian | RXF-631 renal | A498 renal
> 100 µM: all other assays above

Cc1nc(Nc2ccc([N+](=O)[O-])cc2)sc1C(=O)/C=C/c1ccc(N(C)C)cc1
not listed: OVCAR-4 ovarian | M14 melanoma | HCT-116 colon | SNB-78 CNS | XF 498 CNS | LXFL 529 NSCLC | NCI-H226 lung | SR leukemia
> 100 µM: all other assays above
